The results in this text go back to PubChem BioAssay (NCI).

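All cell lines were grown in 96-well plates and treated with compound for 48 hours. The concentration for full growth arrest is given as TGI.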

One assay has as its system SK-OV-3 ovarian. Briefly: NCI anticancer screen, dose series, 48 h.
`Nc1nc2c(ncn2Cc2ccc(CO)cc2)c(=O)[nH]1`: the TGI was above 100 µM.

`O=P(O)(Cc1ccccc1)c1ccccc1-c1ccccc1` showed a TGI above 100 µM.

The compound `CCO/C=N/NC(=O)CSc1nc2ccc(I)cc2c(=O)n1Cc1ccccc1` yielded a TGI above 100 µM.

In the case of `CC12CC(C#N)(C#N)C(C#N)(CO1)C(=N)O2` (stereo not given), the TGI is above 100 µM.

As for `CC(C)=C1C(=O)C[C@]2(C)C[C@H]3/C(=C(/C)CCC12)CC[C@@]3(C)O` (stereo not given in full), the TGI is above 50 µM.

With `CCCCn1c(C)c2c(c1C)C(=O)N(CC(O)CN1CCc3ccccc3C1)C2=O` (stereo not given), the TGI is above 100 µM.

Compound `Cc1cc(C)nc(NS(=O)(=O)c2ccc(NNC(=O)c3cccc4c(=O)c5ccccc5[nH]c34)cc2)n1` showed a TGI above 100 µM.

Regarding `O=C(NCCCN(CCCCN(CCCNC(=O)C(F)(F)F)CCCc1ccccc1)CCCc1ccccc1)C(F)(F)F`, the TGI was 5.6 µM.

With `COc1cc(C2SCC(=O)N2c2ccc(Cl)c(Cl)c2)cc(OC)c1OC` (stereo not given), the TGI was above 100 µM.

Compound `COc1cccc2c1C(=O)c1c(O)c3c(c(O)c1C2=O)C[C@@](O)(C(=O)CO)C[C@@H]3OC1CC(N)C(OC)C(C)O1` (stereo not given in full) showed a TGI of 4.41 µM.

Compound `C[C@H]1C2Cc3cc(N)ccc3[C@@]1(C)CCN2CCc1ccccc1` returned a TGI above 100 µM.

In turn, `COC(=O)c1c(O)ccc2c1c1c(n2Cc2ccc(Cl)cc2Cl)C(=O)c2ccccc2C1` showed a TGI above 100 µM.

For `NCCCNCCCCNCCCN`, the TGI is above 53.9 µM.

The compound `CCOC(=O)c1cc(C2(O)CCN(CC(C)CC)C2=O)c(-c2cc(C)no2)[nH]1` (stereo not given) came in with a TGI above 100 µM.

For another assay, the system named is DU-145 prostate. Briefly: NCI anticancer screen, dose series, 48 h.
`Nc1nc2c(ncn2Cc2ccc(CO)cc2)c(=O)[nH]1` had a TGI above 100 µM.

Compound `O=P(O)(Cc1ccccc1)c1ccccc1-c1ccccc1` came in with a TGI above 100 µM.

For `CCO/C=N/NC(=O)CSc1nc2ccc(I)cc2c(=O)n1Cc1ccccc1`, the TGI was above 100 µM.

In turn, `CC12CC(C#N)(C#N)C(C#N)(CO1)C(=N)O2` (stereo not given) came in with a TGI above 100 µM.

As for `CC(C)=C1C(=O)C[C@]2(C)C[C@H]3/C(=C(/C)CCC12)CC[C@@]3(C)O` (stereo not given in full), the TGI is above 50 µM.

`CCCCn1c(C)c2c(c1C)C(=O)N(CC(O)CN1CCc3ccccc3C1)C2=O` (stereo not given) gave a TGI above 100 µM.

Compound `Cc1cc(C)nc(NS(=O)(=O)c2ccc(NNC(=O)c3cccc4c(=O)c5ccccc5[nH]c34)cc2)n1` yielded a TGI above 100 µM.

`O=C(NCCCN(CCCCN(CCCNC(=O)C(F)(F)F)CCCc1ccccc1)CCCc1ccccc1)C(F)(F)F` came in with a TGI of 3.99 µM.

In the case of `COc1cc(C2SCC(=O)N2c2ccc(Cl)c(Cl)c2)cc(OC)c1OC` (stereo not given), the TGI is above 100 µM.

Compound `COc1cccc2c1C(=O)c1c(O)c3c(c(O)c1C2=O)C[C@@](O)(C(=O)CO)C[C@@H]3OC1CC(N)C(OC)C(C)O1` (stereo not given in full) gave a TGI above 100 µM.

Regarding `C[C@H]1C2Cc3cc(N)ccc3[C@@]1(C)CCN2CCc1ccccc1`, the TGI was above 100 µM.

In the case of `COC(=O)c1c(O)ccc2c1c1c(n2Cc2ccc(Cl)cc2Cl)C(=O)c2ccccc2C1`, the TGI is above 100 µM.

Take `NCCCNCCCCNCCCN`: the TGI was found to be 23.2 µM.

`CCOC(=O)c1cc(C2(O)CCN(CC(C)CC)C2=O)c(-c2cc(C)no2)[nH]1` (stereo not given) returned a TGI above 100 µM.

For another assay, the system named is OVCAR-4 ovarian. Briefly: NCI anticancer screen, dose series, 48 h.
As to `Nc1nc2c(ncn2Cc2ccc(CO)cc2)c(=O)[nH]1`, the TGI is above 100 µM.

`O=P(O)(Cc1ccccc1)c1ccccc1-c1ccccc1`: the TGI is above 100 µM.

Compound `CCO/C=N/NC(=O)CSc1nc2ccc(I)cc2c(=O)n1Cc1ccccc1` had a TGI above 100 µM.

Consider `CC12CC(C#N)(C#N)C(C#N)(CO1)C(=N)O2` (stereo not given), for which the TGI is above 100 µM.

For `CC(C)=C1C(=O)C[C@]2(C)C[C@H]3/C(=C(/C)CCC12)CC[C@@]3(C)O` (stereo not given in full), the TGI was above 50 µM.

On to `CCCCn1c(C)c2c(c1C)C(=O)N(CC(O)CN1CCc3ccccc3C1)C2=O` (stereo not given), for which the TGI is above 100 µM.

`Cc1cc(C)nc(NS(=O)(=O)c2ccc(NNC(=O)c3cccc4c(=O)c5ccccc5[nH]c34)cc2)n1` displayed a TGI above 100 µM.

As for `O=C(NCCCN(CCCCN(CCCNC(=O)C(F)(F)F)CCCc1ccccc1)CCCc1ccccc1)C(F)(F)F`, the TGI was 17.6 µM.

As for `COc1cc(C2SCC(=O)N2c2ccc(Cl)c(Cl)c2)cc(OC)c1OC` (stereo not given), the TGI is above 100 µM.

Turning to `COc1cccc2c1C(=O)c1c(O)c3c(c(O)c1C2=O)C[C@@](O)(C(=O)CO)C[C@@H]3OC1CC(N)C(OC)C(C)O1` (stereo not given in full), the TGI came to 9.67 µM.

In turn, `C[C@H]1C2Cc3cc(N)ccc3[C@@]1(C)CCN2CCc1ccccc1` registered a TGI above 100 µM.

For `COC(=O)c1c(O)ccc2c1c1c(n2Cc2ccc(Cl)cc2Cl)C(=O)c2ccccc2C1`, the TGI amounted to 70.6 µM.

In the case of `NCCCNCCCCNCCCN`, the TGI was above 21.8 µM.

The compound `CCOC(=O)c1cc(C2(O)CCN(CC(C)CC)C2=O)c(-c2cc(C)no2)[nH]1` (stereo not given) showed a TGI above 100 µM.

Another assay concerns BT-549 breast. In words: NCI anticancer screen, dose series, 48 h.
The compound `Nc1nc2c(ncn2Cc2ccc(CO)cc2)c(=O)[nH]1` yielded a TGI above 100 µM.

For the compound `O=P(O)(Cc1ccccc1)c1ccccc1-c1ccccc1`, the TGI was above 100 µM.

Take `CCO/C=N/NC(=O)CSc1nc2ccc(I)cc2c(=O)n1Cc1ccccc1`: the TGI is above 100 µM.

Compound `CC12CC(C#N)(C#N)C(C#N)(CO1)C(=N)O2` (stereo not given) registered a TGI above 100 µM.

On to `CC(C)=C1C(=O)C[C@]2(C)C[C@H]3/C(=C(/C)CCC12)CC[C@@]3(C)O` (stereo not given in full), for which the TGI is above 50 µM.

The compound `CCCCn1c(C)c2c(c1C)C(=O)N(CC(O)CN1CCc3ccccc3C1)C2=O` (stereo not given) returned a TGI above 100 µM.

The compound `Cc1cc(C)nc(NS(=O)(=O)c2ccc(NNC(=O)c3cccc4c(=O)c5ccccc5[nH]c34)cc2)n1` had a TGI above 100 µM.

Regarding `O=C(NCCCN(CCCCN(CCCNC(=O)C(F)(F)F)CCCc1ccccc1)CCCc1ccccc1)C(F)(F)F`, the TGI is 7.34 µM.

The compound `COc1cc(C2SCC(=O)N2c2ccc(Cl)c(Cl)c2)cc(OC)c1OC` (stereo not given) gave a TGI of 98 µM.

`COc1cccc2c1C(=O)c1c(O)c3c(c(O)c1C2=O)C[C@@](O)(C(=O)CO)C[C@@H]3OC1CC(N)C(OC)C(C)O1` (stereo not given in full) returned a TGI of 1.47 µM.

For the compound `C[C@H]1C2Cc3cc(N)ccc3[C@@]1(C)CCN2CCc1ccccc1`, the TGI was above 100 µM.

Turning to `COC(=O)c1c(O)ccc2c1c1c(n2Cc2ccc(Cl)cc2Cl)C(=O)c2ccccc2C1`, the TGI was above 100 µM.

As to `NCCCNCCCCNCCCN`, the TGI was above 24.5 µM.

`CCOC(=O)c1cc(C2(O)CCN(CC(C)CC)C2=O)c(-c2cc(C)no2)[nH]1` (stereo not given): the TGI is above 100 µM.

The test system of the next assay is IGROV1 ovarian. Briefly: NCI anticancer screen, dose series, 48 h.
`Nc1nc2c(ncn2Cc2ccc(CO)cc2)c(=O)[nH]1`: the TGI is above 100 µM.

The compound `O=P(O)(Cc1ccccc1)c1ccccc1-c1ccccc1` showed a TGI above 100 µM.

With `CCO/C=N/NC(=O)CSc1nc2ccc(I)cc2c(=O)n1Cc1ccccc1`, the TGI is above 100 µM.

In the case of `CC12CC(C#N)(C#N)C(C#N)(CO1)C(=N)O2` (stereo not given), the TGI is above 100 µM.

`CC(C)=C1C(=O)C[C@]2(C)C[C@H]3/C(=C(/C)CCC12)CC[C@@]3(C)O` (stereo not given in full) yielded a TGI above 50 µM.

Consider `CCCCn1c(C)c2c(c1C)C(=O)N(CC(O)CN1CCc3ccccc3C1)C2=O` (stereo not given), for which the TGI was above 100 µM.

Turning to `Cc1cc(C)nc(NS(=O)(=O)c2ccc(NNC(=O)c3cccc4c(=O)c5ccccc5[nH]c34)cc2)n1`, the TGI was above 100 µM.

`O=C(NCCCN(CCCCN(CCCNC(=O)C(F)(F)F)CCCc1ccccc1)CCCc1ccccc1)C(F)(F)F` showed a TGI of 3.52 µM.

In the case of `COc1cc(C2SCC(=O)N2c2ccc(Cl)c(Cl)c2)cc(OC)c1OC` (stereo not given), the TGI is above 100 µM.

In the case of `COc1cccc2c1C(=O)c1c(O)c3c(c(O)c1C2=O)C[C@@](O)(C(=O)CO)C[C@@H]3OC1CC(N)C(OC)C(C)O1` (stereo not given in full), the TGI came out at 16.4 µM.

`C[C@H]1C2Cc3cc(N)ccc3[C@@]1(C)CCN2CCc1ccccc1`: the TGI is above 100 µM.

Regarding `COC(=O)c1c(O)ccc2c1c1c(n2Cc2ccc(Cl)cc2Cl)C(=O)c2ccccc2C1`, the TGI is above 100 µM.

Regarding `NCCCNCCCCNCCCN`, the TGI was 33.8 µM.

On to `CCOC(=O)c1cc(C2(O)CCN(CC(C)CC)C2=O)c(-c2cc(C)no2)[nH]1` (stereo not given), for which the TGI was above 100 µM.
